These compounds were tested against T1, human FSH receptor (Homo sapiens, UniProt P23945) (assay: HTRF assay for measuring cAMP in cells (FSH antagonism)). Conditions: FSH-antagonistic effect; CHO cells stably transfected with the human FSH receptor (hFSHR clone 16); in the presence of 1 e-9 mol/l hFSH; 37°C for 2h.
T1 construct: expressed in transfected cells; host or cells: CHO cells (hFSHR clone 16)
T1 sequence (P23945 18-695): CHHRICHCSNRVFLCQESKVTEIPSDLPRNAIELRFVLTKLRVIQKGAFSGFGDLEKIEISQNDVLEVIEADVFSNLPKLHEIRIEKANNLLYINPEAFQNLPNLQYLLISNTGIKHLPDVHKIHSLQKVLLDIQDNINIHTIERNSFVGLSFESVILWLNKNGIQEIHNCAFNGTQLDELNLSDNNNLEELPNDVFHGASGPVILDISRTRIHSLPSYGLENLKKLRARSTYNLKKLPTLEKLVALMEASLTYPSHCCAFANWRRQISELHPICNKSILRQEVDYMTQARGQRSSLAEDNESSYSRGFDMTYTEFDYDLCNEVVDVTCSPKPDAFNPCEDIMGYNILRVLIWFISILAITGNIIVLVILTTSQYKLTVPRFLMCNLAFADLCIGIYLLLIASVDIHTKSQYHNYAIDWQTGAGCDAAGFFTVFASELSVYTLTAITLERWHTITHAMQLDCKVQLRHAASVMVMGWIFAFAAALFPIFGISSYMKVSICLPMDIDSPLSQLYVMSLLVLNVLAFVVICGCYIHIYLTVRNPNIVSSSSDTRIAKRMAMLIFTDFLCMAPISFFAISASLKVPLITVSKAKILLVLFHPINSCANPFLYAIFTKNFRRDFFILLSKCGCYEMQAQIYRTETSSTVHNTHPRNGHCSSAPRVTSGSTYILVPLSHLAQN
Format: cell-based
Method: HTRF assay for measuring cAMP in cells
The method is based on a competitive immunoassay between native cAMP, which has been produced by the cells, and cAMP which is labelled with XL665. The tracer binding was visualized by a monoclonal antibody, anti-cAMP labelled with cryptate [HTRF = homogeneous time-resolved fluorescence].
The specific signal is inversely proportional to the cAMP concentration of the samples employed.
The 665nm/ 620nm fluorescence ratio was evaluated.
The following material was used: 96-well plates for the tissue culture, 96-well plates with black edge and black base (e.g. Fluotrac 600 from Greiner), 96-well plates for the substance dilutions of polypropylene and cAMP Femtomolar (4000wells Kit, CIS Bio International # 62AM1PEC).
The following reagents were used: BSA (bovine serum albumin) Fraction V protease-free, IBMX (3-isobutyl-1-methylxanthine), hFSH (human follicle stimulating hormone), Triton X-100 analytical grade, potassium fluoride analytical grade, G 418 (Geneticin) and Accutase.
Buffer 1 (washing and testing buffer) contained PBS, 1 mM CaCl2, 1 mM MgCl2, 0.2% glucose; 0.1% BSA, 1 mM IBMX.
Buffer 2 (2x lysis buffer) contained 1% Triton X-100 in PBS (without CaCl2 and MgCl2).
Buffer 3 (assay buffer) contained 50 mM potassium phosphate buffer (pH 7.0); 800 mM potassium fluoride; 0.2% BSA (always added fresh).
On day 1, the cells were seeded in 96-well plates (3x10^4 cells per well hFSHR clone 16 cells (CHO cells stably transfected with the human FSH receptor in 150 µl of medium). The next day, test substance dilutions were made up. For this purpose, all the substances were diluted in ice-cold buffer 1 (with or without hFSH), and the substance dilutions were placed on ice until applied to the cells.
The cell supernatant was then aspirated off, and the cells were washed 2x with 200 µl of buffer 1. The cells were treated with 60 µl of the appropriate substance concentrations at 37°C for 2h. The cells were then lysed with 60 µl of buffer 2 (put onto the supernatant) (on a plate shaker at RT for 30 min).
The test conjugates (XL-665 and anti-cAMP cryptate) were diluted in buffer 3 in accordance with the manufacturers' information. The actual mixture for measurement was pipetted into a black 96-well plate (in each case 15 µl of the cell lysate diluted with 35 µl of buffer 1; firstly 25 µl of XL-665 conjugate were pipetted and, after 10 min, 25 µl of the anti-cAMP cryptate were added). This is followed by incubation at RT for 90 minutes. The measurement was carried out in a PheraStar (BMG).
Tissue culture conditions
• 1) hFSHr clone 16 Ham's F12 PSG 10% FCS 700 µg/ml G 418 (Geneticin) from PAA.
Dose-effect curve (hFSH) for the human receptor: 1 e-8, 3e-9, 1 e-9, 3e-10, 1 e-1 0, 3e-11, 1 e-11, 3e-12 mol/l.
The test substances were employed in suitable dilutions in the absence (test for agonism) and in the presence of 1 e-9 mol/l hFSH.
The values of the well ratio were averaged and then entered directly in SigmaPlot versus the concentrations. The maximum and minimum values were determined for each plate, and half the difference is to be regarded as IC50.

IC50 [µM]	SMILES
0.07	CNC(=O)c1ccc(-c2ccc(OC(C)C)c(C(=O)NC3(CO)CCc4[nH]c5ccc(F)cc5c4C3)c2)cc1Cl (centres unmarked) [Example 33, 3'-Chloro-4-isopropoxy-biphenyl-3,4'-dicarboxylic acid 3-[(6-fluoro-3-hydroxymethyl-2,3,4,9-tetrahydro-1H-carbazol-3-yl)-amide] 4'-methylamide]
0.9	CNC(=O)c1ccc(-c2ccc(OC(C)C)c(C(=O)NC3(CO)CCc4[nH]c5c(Cl)ccc(Cl)c5c4C3)c2)cc1Cl (centres unmarked) [Example 25, 3'-Chloro-4-isopropoxy-biphenyl-3,4'-dicarboxylic acid 3-[(5,8-dichloro-3-hydroxymethyl-2,3,4,9-tetrahydro-1 H-carbazol-3-yl)-amide] 4'-methyl-amide]
0.2	CNC(=O)c1ccc(-c2ccc(OC(C)C)c(C(=O)NC3(CO)CCc4[nH]c5c(Cl)cccc5c4C3)c2)cc1Cl (centres unmarked) [Example 30, 3'-Chloro-4-isopropoxy-biphenyl-3,4'-dicarboxylic acid 3-[(8-chloro-3-hydroxymethyl-2,3,4,9-tetrahydro-1H-carbazol-3-yl)-amide] 4'-methylamide]
4	COc1ccc(-c2ccc(OC(C)C)c(C(=O)NC3(CO)CCc4[nH]c5c(C)ccc(C)c5c4C3)c2)cc1OC (centres unmarked) [Example 19, 4-Isopropoxy-3',4'-dimethoxy-biphenyl-3-carboxylic acid (3-hydroxymethyl-5,8-dimethyl-2,3,4,9-tetrahydro-1H-carbazol-3-yl)-amide]
1.5	CNC(=O)c1ccc(-c2ccc(OC(C)C)c(C(=O)NC3(CO)CCc4[nH]c5ccc(Cl)cc5c4C3)c2)cc1Cl (centres unmarked) [Example 34, 3'-Chloro-4-isopropoxy-biphenyl-3,4'-dicarboxylic acid 3-[(6-chloro-3-hydroxymethyl-2,3,4,9-tetrahydro-1 H-carbazol-3-yl)-amide] 4'-methylamide]
8	COc1ccc2nc(-c3ccccc3)cc(C(=O)NC3(CO)CCc4[nH]c5cc(Cl)c(F)cc5c4C3)c2c1 (centres unmarked) [Example 13, 6-Methoxy-2-phenyl-quinoline-4-carboxylic acid (7-chloro-6-fluoro-3-hydroxymethyl-2,3,4,9-tetrahydro-1 H-carbazol-3-yl)-amide]
0.75	Cc1ccc2[nH]c3c(c2c1Cl)CC(CO)(NC(=O)c1cc(-c2cc4ccccc4o2)ccc1OC(C)C)CC3 (centres unmarked) [Example 40, 5-Benzofuran-2-yl-N-(5-chloro-3-hydroxymethyl-6-methyl-2,3,4,9-tetrahydro-1H-carbazol-3-yl)-2-isopropoxy-benzamide]
3	CNC(=O)c1ccc(-c2ccc(OC(C)C)c(C(=O)NC3(CO)CCc4[nH]c5ccc(C)cc5c4C3)c2)cc1Cl (centres unmarked) [Example 32, 3'-Chloro-4-isopropoxy-biphenyl-3,4'-dicarboxylic acid 3-[(3-hydroxymethyl-6-methyl-2,3,4,9-tetrahydro-1H-carbazol-3-yl)-amide] 4'-methylamide]
